# Laboratory results reported in ChEMBL document CHEMBL3885881, “DrugMatrix”.
# Species: Rattus norvegicus
# Experiment: DrugMatrix - Regimen: Daily Repeat
# Assay type: toxicity, organism-based, Sprague-Dawley
# Design: regimen Daily Repeat, gender Male, age 6-8 weeks
# Details: in vivo, po, route oral GAVAGE, vehicle .5 % CMC; for ABSOLUTE BASOPHIL / ABSOLUTE EOSINOPHIL / ABSOLUTE LYMPHOCYTE / ABSOLUTE MONOCYTE / ABSOLUTE SEGMENTED NEUTROPHIL / BASOPHIL / EOSINOPHIL / ERYTHROCYTE COUNT / HEMATOCRIT / HEMOGLOBIN / LEUKOCYTE COUNT / LYMPHOCYTE / MEAN CORPUSCULAR HEMOGLOBIN / MEAN CORPUSCULAR HEMOGLOBIN CONCENTRATION / MEAN CORPUSCULAR VOLUME / MONOCYTE / NEUTROPHIL / NUCLEATED RED BLOOD CELLS / PLATELET COUNT: tissue Blood; for ALANINE AMINOTRANSFERASE / ALBUMIN / ALKALINE PHOSPHATASE / ASPARTATE AMINOTRANSFERASE / BLOOD UREA NITROGEN / CARBON DIOXIDE / CHLORIDE / CHOLESTEROL / CREATINE PHOSPHOKINASE / CREATININE / GLUCOSE / LACTATE DEHYDROGENASE / LIPASE / PHOSPHORUS / POTASSIUM / SODIUM / TOTAL BILIRUBIN / TOTAL PROTEIN / URIC ACID: tissue Plasma
# [1] = 0 mg/kg, 72 h, dose level Control, time 3 day
# [2] = 0 mg/kg, 120 h, dose level Control, time 5 day
# [3] = 2500 mg/kg, 72 h, dose level High, time 3 day
structure (smiles),measurement,setting,value
CN1CCC[C@@H]1CCO[C@](C)(c1ccccc1)c1ccc(Cl)cc1 [CLEMASTINE],ABSOLUTE BASOPHIL,[1],0 CELLS/uL
same,ABSOLUTE EOSINOPHIL,[1],0 CELLS/uL
same,ABSOLUTE LYMPHOCYTE,[1],12191.17 CELLS/uL
same,ABSOLUTE MONOCYTE,[1],183.17 CELLS/uL
same,ABSOLUTE SEGMENTED NEUTROPHIL,[1],1192.33 CELLS/uL
same,BASOPHIL,[1],0%
same,EOSINOPHIL,[1],0%
same,ERYTHROCYTE COUNT,[1],5.51 x10E6/uL
same,HEMATOCRIT,[1],35.45%
same,HEMOGLOBIN,[1],13.82 G/DL
same,LEUKOCYTE COUNT,[1],13.57 x10E3/uL
same,LYMPHOCYTE,[1],89.83%
same,MEAN CORPUSCULAR HEMOGLOBIN,[1],25.1 pg
same,MEAN CORPUSCULAR HEMOGLOBIN CONCENTRATION,[1],38.98 G/DL
same,MEAN CORPUSCULAR VOLUME,[1],64.42 fL
same,MONOCYTE,[1],1.33%
same,NEUTROPHIL,[1],8.83%
same,NUCLEATED RED BLOOD CELLS,[1],0 /100WBC
same,PLATELET COUNT,[1],1118.17 x10E3/uL
same,ALANINE AMINOTRANSFERASE,[1],55 u/L
same,ALBUMIN,[1],4.15 G/DL
same,ALKALINE PHOSPHATASE,[1],449.5 u/L
same,ASPARTATE AMINOTRANSFERASE,[1],112.83 u/L
same,BLOOD UREA NITROGEN,[1],17.33 mg/dL
same,CARBON DIOXIDE,[1],29.5 mmol/L
same,CHLORIDE,[1],101 MEQ/L
same,CHOLESTEROL,[1],70 mg/dL
same,CREATINE PHOSPHOKINASE,[1],1325.83 u/L
same,CREATININE,[1],0.18 mg/dL
same,GLUCOSE,[1],171.5 mg/dL
same,LACTATE DEHYDROGENASE,[1],386 u/L
same,LIPASE,[1],10 u/L
same,PHOSPHORUS,[1],11.57 mg/dL
same,POTASSIUM,[1],6.21 MEQ/L
same,SODIUM,[1],141.65 MEQ/L
same,TOTAL BILIRUBIN,[1],0.15 mg/dL
same,TOTAL PROTEIN,[1],5.75 G/DL
same,URIC ACID,[1],1.28 mg/dL
same,ABSOLUTE BASOPHIL,[2],0 CELLS/uL
same,ABSOLUTE EOSINOPHIL,[2],138.17 CELLS/uL
same,ABSOLUTE LYMPHOCYTE,[2],13283.17 CELLS/uL
same,ABSOLUTE MONOCYTE,[2],303.83 CELLS/uL
same,ABSOLUTE SEGMENTED NEUTROPHIL,[2],1308.17 CELLS/uL
same,BASOPHIL,[2],0%
same,EOSINOPHIL,[2],1%
same,ERYTHROCYTE COUNT,[2],5.32 x10E6/uL
same,HEMATOCRIT,[2],33.8%
same,HEMOGLOBIN,[2],13.63 G/DL
same,LEUKOCYTE COUNT,[2],15.03 x10E3/uL
same,LYMPHOCYTE,[2],88.33%
same,MEAN CORPUSCULAR HEMOGLOBIN,[2],25.68 pg
same,MEAN CORPUSCULAR HEMOGLOBIN CONCENTRATION,[2],40.35 G/DL
same,MEAN CORPUSCULAR VOLUME,[2],63.67 fL
same,MONOCYTE,[2],1.83%
same,NEUTROPHIL,[2],8.83%
same,NUCLEATED RED BLOOD CELLS,[2],0 /100WBC
same,PLATELET COUNT,[2],1097.5 x10E3/uL
same,ALANINE AMINOTRANSFERASE,[2],54.5 u/L
same,ALBUMIN,[2],4.27 G/DL
same,ALKALINE PHOSPHATASE,[2],337 u/L
same,ASPARTATE AMINOTRANSFERASE,[2],94.67 u/L
same,BLOOD UREA NITROGEN,[2],17 mg/dL
same,CARBON DIOXIDE,[2],28.33 mmol/L
same,CHLORIDE,[2],101.5 MEQ/L
same,CHOLESTEROL,[2],71.33 mg/dL
same,CREATINE PHOSPHOKINASE,[2],628.17 u/L
same,CREATININE,[2],0.19 mg/dL
same,GLUCOSE,[2],177.83 mg/dL
same,LACTATE DEHYDROGENASE,[2],500.5 u/L
same,LIPASE,[2],9.5 u/L
same,PHOSPHORUS,[2],12.3 mg/dL
same,POTASSIUM,[2],5.63 MEQ/L
same,SODIUM,[2],143.03 MEQ/L
same,TOTAL BILIRUBIN,[2],0.2 mg/dL
same,TOTAL PROTEIN,[2],6.02 G/DL
same,URIC ACID,[2],1.5 mg/dL
same,ABSOLUTE BASOPHIL,[3],0 CELLS/uL
same,ABSOLUTE EOSINOPHIL,[3],0 CELLS/uL
same,ABSOLUTE LYMPHOCYTE,[3],7950 CELLS/uL
same,ABSOLUTE MONOCYTE,[3],225 CELLS/uL
same,ABSOLUTE SEGMENTED NEUTROPHIL,[3],1825 CELLS/uL
same,BASOPHIL,[3],0%
same,EOSINOPHIL,[3],0%
same,ERYTHROCYTE COUNT,[3],6.97 x10E6/uL
same,HEMATOCRIT,[3],42.9%
same,HEMOGLOBIN,[3],16.67 G/DL
same,LEUKOCYTE COUNT,[3],10 x10E3/uL
same,LYMPHOCYTE,[3],77%
same,MEAN CORPUSCULAR HEMOGLOBIN,[3],23.97 pg
same,MEAN CORPUSCULAR HEMOGLOBIN CONCENTRATION,[3],38.87 G/DL
same,MEAN CORPUSCULAR VOLUME,[3],61.6 fL
same,MONOCYTE,[3],2.33%
same,NEUTROPHIL,[3],20.67%
same,NUCLEATED RED BLOOD CELLS,[3],0 /100WBC
same,PLATELET COUNT,[3],1501 x10E3/uL
same,ALANINE AMINOTRANSFERASE,[3],133 u/L
same,ALBUMIN,[3],4.1 G/DL
same,ALKALINE PHOSPHATASE,[3],344 u/L
same,ASPARTATE AMINOTRANSFERASE,[3],444 u/L
same,BLOOD UREA NITROGEN,[3],70.67 mg/dL
same,CARBON DIOXIDE,[3],23 mmol/L
same,CHLORIDE,[3],102.5 MEQ/L
same,CHOLESTEROL,[3],44.33 mg/dL
same,CREATINE PHOSPHOKINASE,[3],1897.33 u/L
same,CREATININE,[3],0.69 mg/dL
same,GLUCOSE,[3],201 mg/dL
same,LACTATE DEHYDROGENASE,[3],1757 u/L
same,LIPASE,[3],14.33 u/L
same,PHOSPHORUS,[3],18 mg/dL
same,POTASSIUM,[3],6.26 MEQ/L
same,SODIUM,[3],145.75 MEQ/L
same,TOTAL BILIRUBIN,[3],0.73 mg/dL
same,TOTAL PROTEIN,[3],5.93 G/DL
same,URIC ACID,[3],2.83 mg/dL
